Reference: patent US11661404B2, “Prodrug compounds activated by AKR1C3 and their use for treating hyperproliferative disorders” (priority 2018, dated 2023)

Legend:
[1] = tested on: H460 lung cancer xenografts; assay: Tumour growth delay, H460 xenografts; type: in vivo, NIH-III mice; conditions: q4dx3 intraperitoneal; for tolerability of schedule: 237, 178 and 178 μmol/kg
From the text: Specific pathogen-free female homozygous nude NIH-III (NIH-Lyst^bg Foxn1^nu Btk^xid) mice were bred by the Vernon Jansen Unit (shared vivarium, University of Auckland). Animals were housed in Techniplast microisolator cages and provided with a standard twelve hour day-night light schedule. Animals received standard rodent diet (Harlan Teklad diet 2018i) and water ad libitum. All animal studies were approved by the University of Auckland Animal Ethics Committee.
Animals weighed 18-25 g at the time of tumour inoculation. Tumours were grown subcutaneously on the right flank of mice by inoculating cells grown in tissue culture (1×10^7 cells in 100 uL serum free α-MEM). Tumour sizes were monitored three times weekly using electronic callipers and treatments were initiated once tumour diameter reached ≥7 mm.
Tumour bearing mice were randomised into the appropriate treatment groups and tumour size and body weight recorded. Test compounds were formulated on the day of the experiment and kept in foil-wrapped tubes out of direct fluorescent light. If recruitment of animals occurred over multiple days, the drug stocks were aliquoted into tubes and frozen once at −80° C. until required. Mice were treated with a single (or q4dx3 or q4dx4 or q4dx6) dose of a compound of the invention by intraperitoneal injection and thereafter tumour size and body weight was monitored every second day. Tumour volume was calculated as […] (l×w×w)/6, where l is the major axis and w is the perpendicular minor axis. Animals were culled when they had reached the appropriate survival endpoint or when body weight loss exceeded 20% of the pre-treatment value.

[2] = Solubility by HPLC in water and lactate buffer; type: physicochemical; conditions: lactate buffer (pH 4), room temperature
Procedure: (§1) The solubility and stability of compound 641 was studied by HPLC in lactate buffer (pH 4) and water as the free base and the mesylate salt (641.Ms) at 0° C. and room temperature (RT). […] However, this was improved considerably by formulation as the mesylate salt, producing a solubility of greater than 100 mmol/L in lactate buffer and greater than 70 mmol/L in water. […] This stability was improved considerably by reducing the temperature of the solution to 0° C.

[3] = Stability in solution by HPLC in water and lactate buffer; type: physicochemical; conditions: room temperature
Procedure: as §1

[4] = tested on: mixed HCT116 colon cancer MCLs containing 5% AKR1C3 over-expressing cells; assay: High cell density multicellular layer (MCL) assay, bystander cell killing; type: cell-based, human
Procedure: The MCL model utilised for this evaluation consisted of AKR1C3 overexpressing (activator) cells or non-AKR1C3 expressing (target) cells or a mixture of these two cell types grown in a ratio of 5:95. The mixture of the two distinct cell populations enabled the determination of the extent of the transfer of cytotoxic metabolites from the activator cell to the target cell population.
Plating efficiencies were calculated as the fraction of colonies formed relative to the number of cells seeded. The compound concentrations for 10% survival (C10) of target cells grown without activators (T), targets in co-culture (Tc) and activators in co-culture (Ac) was determined by interpolation. Bystander effect efficiency (BEE) was calculated as (Log C10T−Log C10Tc)/(Log C10T−Log C10Ac), where BEE is the measure of cytotoxic metabolite transfer. In contrast to PR-104A, preferred compounds of the invention have a minimal BEE, reducing off-target side effects from ablation of neighbouring non-AKR1C3 expressing cells.
Millicell-CM membrane inserts were coated in calf-skin collagen type III. The collagen solution was prepared dissolving in sterile 0.01 N HCl to a concentration of 3 mg/mL. The collagen solution was diluted (1:5) in sterile 60% ethanol and 100 μL of this solution was used to coat the membrane inserts and left overnight in a sterile environment to dry.
Prior to adding cells, the inserts were sterilised in 70% ethanol and left to aerate in a sterile environment in order for the ethanol to evaporate. A sterile polyethylene foam ring was placed around each insert to enable subsequent floatation. Single cell suspensions of 1×10^6 cells in a volume of 500 μL was added to each insert. When mixtures of cells were required, 1×10^6 cells of the mixed cell suspension (in 500 μL) were added to each insert. The type of mixed MCLs used in experiments consisted of 95% HCT116^NeoR and 5% HCT116^AKR1C3 cells. The HCT116^NeoR ells were used in this mixture as an AKR1C3 negative cell line which can subsequently be grown in selective medium containing Geneticin (G418), and which enabled discrimination with the AKR1C3 positive cell line (which can be grown in selective medium containing puromycin). The inserts containing cells were placed in a sterile screw-top plastic jar containing 300 mL of α-MEM+10% v/v FBS+1% PSG, with a maximum of 6 inserts in a jar. The inserts were left floating in the medium for 4 hours in a humidified incubator (37° C., 5% CO2) to enable cells to adhere to the collagen coat and then submerged in the medium with a sterile stainless steel grid. Cells were left to grow and form MCLs on the inserts for a period of 3 days by placing the jars in a 37° C. water bath with continuous magnetic stirring of the medium.
Three days after growth of cells as MCLs in inserts, each insert was inspected with an inverted phase contrast microscope to ensure uniform growth of cells. Suitable MCLs were transferred to 25 mL glass vessels containing 10 mL of medium (α-MEM+10% v/v FBS+1% PSG) with the required drug concentrations. Each insert in the glass vessel was held by a stainless steel loop attached to the lid. The vessels were placed in a 37° C. water bath. Ports on the lid of each bottle enabled gassing with the required gas phase. The glass vessels containing the MCL inserts and drug were left in the 37° C. water bath for 5 hours with continuous gassing and magnetic stirring of medium. The gas phase used was 5% CO2:95% O2, with the high oxygen concentration used to minimise bioreductive drug activation by endogenous one-electron reductases.
After the 5 hour incubation, each insert was trypsinised in 0.07% trypsin in PBS for 10 minutes at 37° C. to dissociate the MCL into a single cell suspension. The dissociated cells were incubated for a further 10 minutes in α-MEM containing 10% FBS and 100 μg/ml DNAase I. Cells were then counted on a Z2 Coulter® Particle Count and Size Analyzer and resuspended in fresh medium. […]

AKR1C3 mixed MCLs = conditions: cited from earlier work
[5] = 95% HCT116^NeoR : 5% HCT116^AKR1C3, 5 hours

## CN1CCN(S(=O)(=O)c2cc([N+](=O)[O-])ccc2N(CCBr)CCOS(C)(=O)=O)CC1 [Compound 602, 2-((2-bromoethyl)(2-((4-methylpiperazin-1-yl)sulfonyl)-4-nitrophenyl)amino)ethyl methanesulfonate]
[1]
  tolerability of schedule: well-tolerated

## CN1CCN(S(=O)(=O)c2cc([N+](=O)[O-])ccc2N(CCOS(C)(=O)=O)CCOS(C)(=O)=O)CC1 [Compound 641, ((2-((4-methylpiperazin-1-yl)sulfonyl)-4-nitrophenyl)azanediyl)bis(ethane-2,1-diyl) dimethanesulfonate]
[2]
  Solubility, Lactate Buffer, RT: 3.4 mM
[3]; lactate buffer (pH 4)
  Stability (% Parent after 24 hours), Lactate Buffer, RT: 54.4%
[3]; pH 4, lactate buffer
  half-life: ~24 h
[1]
  tolerability of schedule: well-tolerated
[4]; 5% AKR1C3-positive cells
  shift in the C10 from T to Tc: 9 fold
[4]; [5]
  activators in co-culture C10 (Ac): 0.0054 µM
  targets in co-culture C10 (Tc): 1.27 µM
[4]; concentrations 0.002 μM to 0.2 μM, FIG. 8
  AKR1C3-positive HCT116 cells clonogenically sterilised: at least 99.9%
[4]; high cell density
  sensitivity of AKR1C3 expressing cells vs AKR1C3-negative cells to clonogenic cell kill (T/Ac): 2055 fold
[4]; target cells grown without activators, 5 hours exposure, clonogenic survival
  target cell C10 (T), concentration for 10% survival: 11.1 µM

## CS(=O)(=O)OCCN(CCBr)c1c(C(=O)NCCO)cc([N+](=O)[O-])cc1[N+](=O)[O-] [PR-104A, 2-((2-bromoethyl)(2-((2-hydroxyethyl)-carbamoyl)-4,6-dinitrophenyl)amino)ethyl methanesulfonate, reference compound]
AKR1C3 mixed MCLs; Foehrenbacher et al, 2013
  bystander effect (literature): substantial bystander effect

## CN1CCN(C(=O)c2cc([N+](=O)[O-])ccc2N(CCBr)CCBr)CC1 [SN34118, reference compound]
AKR1C3 mixed MCLs; Silva, MSc Thesis
  BEE reported in AKR1C3 mixed MCLs: 52.7%

## CN1CCN(C(=O)c2cc([N+](=O)[O-])ccc2N(CCBr)CCOS(C)(=O)=O)CC1 [SN34454, reference compound]
[1]
  tolerability of schedule: well-tolerated
[1]; SN34454 237, 602 178, 641 178 μmol/kg, FIG. 2
  anti-tumour efficacy (mean tumour volume): anti-tumour efficacy
